Data on 2 compounds can be found in patent US11065286B2 (priority 2016, dated 2021).

One experiment relates to MDA-MB-231 cells. It counts as cell-based.
For experiment [1], the system named is Renca, MC38, and 4T1 cell lines. Type of experiment: cell-based, mouse.

For `C/C=C/C/C=C/CCC(=O)[C@H]1O[C@H]1C(N)=O` [cerulenin], the vaccinia replication result in the experiment with MDA-MB-231 cells is on record as “significantly reduced vaccinia replication”.
For the compound Bafilomycin A1, in experiment [1], the “viral gene expression with HMGB1mut expression in presence of inhibitor” value was “loss of the increased viral gene expression”.
